Our source for the IC50 and Activity values is ChEMBL document CHEMBL3352810, “Synthesis and evaluation of novel alkannin and shikonin oxime derivatives as potent antitumor agents” (Bioorg Med Chem Lett, 2014).

One data set has as its system DU-145. Nature of the data set: Cytotoxicity against human DU145 cells by MTT assay. The data set is classed as functional, cell-based. For orientation: Tetrazolium dyes change colour on reduction, which living cells bring about.
Data set [1] relates to MCF7. Put plainly: Cytotoxicity against human MCF7 cells by MTT assay. Type of data set: functional, cell-based.
The test system of the next data set is K562. Put plainly: Cytotoxicity against human K562 cells by MTT assay. Type of data set: functional, cell-based.
Data set [2] is described as follows: Cytotoxicity against human skin fibroblast cells by MTT assay. The data set is classed as cell-based.
Data set [3] has as its system MCF7. Nature of the data set: Induction of ROS level in human MCF7 cells by flow cytometry relative to control. Type of data set: functional. (A flow cytometer gives signals particle by particle.)
Data set [4] can be described thus: Alkylation of the compound assessed as Michael addition after 15 mins. The data set is classed as physicochemical.
Data set [5] in a line: Alkylation of the compound assessed as bioreductive alkylation after 15 mins. The data set is classed as physicochemical.

On to `CC(C)=CC[C@H](O)C1=CC(=O)c2c(O)ccc(O)c2C1=O` [ALKANNIN], for which the IC50 with DU-145 amounted to 19900 nM; with MCF7 [1], 2400 nM; in the data set with K562 it was 1300 nM; in data set [2], 1500 nM.

Turning to `CC(C)=CC[C@@H](OC(=O)C=C(C)C)C1=CC(=O)c2c(O)ccc(O)c2C1=O` [DIMETHYLACRYLSHIKONIN], the Activity was 414.8% with MCF7 [3], “Not Active” in data set [4] and “Not Active” in data set [5].

For the compound `CC(C)=CC[C@@H](O)C1=CC(=O)c2c(O)ccc(O)c2C1=O` [SHIKONIN], the IC50 in the data set with DU-145 is 16000 nM; in the data set on MCF7 [1], 1800 nM; in the data set with K562, 700 nM; in data set [2], 1200 nM.

As a reminder, the IC50 is the point on the concentration scale where inhibition reaches its midpoint. The low end stands for higher potency, the high end for lower potency.
